This is an account of results in ChEMBL document CHEMBL4699523, “Predicting the Human Hepatic Clearance of Acidic and Zwitterionic Drugs” (J Med Chem, 2020).

For data set [1] the following is noted: rat, in vivo, iv, 1 mg/kg.
For data set [2] the following is noted: cynomolgus monkey, in vivo, iv, 1 mg/kg.
The conditions of data set [3]: human, in vivo, iv.
Description: Hepatic clearance in human administered through iv dosing
Data set [4] in a line: in vivo. The conditions noted are these: Wistar Hannover, rat, blood and plasma, iv.
Description: Ratio of drug level in Wistar Hannover rat blood to plasma administered through iv dosing by LC-MS/MS analysis
Data set [5] is described as follows: in vivo. The conditions noted are these: cynomolgus monkey, blood and plasma, iv.
Description: Ratio of drug level in cynomolgus monkey blood to plasma administered through iv dosing by LC-MS/MS analysis
Data set [6] in a line: physchem.
Data set [7] can be described thus: in vitro. The conditions noted are these: dog, MDCK, pH 7.4.
Description: Apparent permeability in dog MDCKII-LE cells at pH 7.4
Data set [8] is described as follows: physchem. The conditions noted are these: buffer, pH 7.4.
Data set [9] in a line: in vitro. The following applies: human, cryopreserved hepatocytes.
Data set [10] in a line: in vitro. The conditions noted are these: rat, plasma.
Description: Fraction unbound in rat plasma
A short description of data set [11]: in vitro. The conditions noted are these: cynomolgus monkey, plasma.
Description: Fraction unbound in cynomolgus monkey plasma
The next data set in a line: clinical. The following applies: human, blood and plasma, iv.
Data set [12] in a line: in vitro. The conditions noted are these: human, plasma.
Description: Fraction unbound in human plasma
A short description of data set [13]: physchem. The source holds these as a separate data set.
Data set [14] can be described thus: Ratio of drug level in cynomolgus monkey blood to plasma administered through oral dosing by LC-MS/MS analysis. It counts as ADME, cell-free, Macaca fascicularis. The conditions noted are these: blood and plasma.
Data set [15] in a line: Ratio of drug level in human blood to plasma administered through oral dosing by LC-MS/MS analysis. The data set is classed as ADME, cell-free. The following applies: blood and plasma.
Data set [16] can be described thus: Hepatic clearance in cynomolgus monkey administered through oral dosing. The data set is classed as ADME, Macaca fascicularis. The conditions noted are these: in vivo.
Data set [17] can be described thus: Hepatic clearance in human administered through oral dosing. It counts as ADME.

Description for clinical: Ratio of drug level in human blood to plasma administered through iv dosing by LC-MS/MS analysis

On to `CCCc1nc2c(C)cc(-c3nc4ccccc4n3C)cc2n1Cc1ccc(-c2ccccc2C(=O)O)cc1`, for which the CLH in data set [1] was determined as 4.3 mL/min/kg; in [2] it was 9.2 mL/min/kg; in [3], 10.2 mL/min/kg. For the same molecule, the blood plasma ratio in the data set “in vivo [4]” amounted to 0.65; in the data set “in vivo [5]”, 0.61; in “clinical”, 0.61. Besides, the pKa at 0.3 h in “physchem [6]” was 4.2; in “physchem [13]”, 3.2. The molecule further gave an apparent permeability (Papp) in the data set “in vitro [7]” of 12 ×10⁻⁶ cm/s. In the data set “physchem [8]”, the logD worked out at 2.4. In “in vitro [9]”, this molecule registered an intrinsic clearance (CLint scaled) at 2 h, 1 µM of 39 mL/min/kg. The figures for the fraction unbound in “in vitro [10]”, in the data set “in vitro [11]” and in “in vitro [12]” were 0.006, 0.0125 and 0.006, respectively.
As to `O=C(O)[C@@H]1CCC[C@H]1C(=O)c1ccc(-c2ccc(Nc3nc4ccc(F)cc4s3)c(F)c2)cc1`, the blood plasma ratio was 0.617 in [14] and 0.653 in [15]. Moreover, the CLH was 2 mL/min/kg in [16] and 0.59 mL/min/kg in data set [17]. Further, the pKa at 0.3 h in “physchem [6]” turned out to be 4.7; in the data set “physchem [13]” it was 2.4. This molecule registered a Papp in “in vitro [7]” of 2.3 ×10⁻⁶ cm/s. This molecule also showed a logD in the data set “physchem [8]” above 3.5. Also, in “in vitro [9]”, the CLint scaled at 2 h, 1 µM amounted to 201 mL/min/kg. In addition, the fraction unbound in “in vitro [11]” came out at 0.0014; in “in vitro [12]” it was 0.00086.
For `Cc1cc(O[C@H](CCC(F)(F)F)c2ccc(C(=O)NCCC(=O)O)cc2)cc(C)c1-c1ccc(C(C)(C)C)cc1`, the results for the blood plasma ratio in data set [14] and in data set [15] were 0.823 and 0.605, respectively. Moreover, the CLH in [16] was 0.29 mL/min/kg; in data set [17] it was 0.078 mL/min/kg. Further, the pKa at 0.3 h in the data set “physchem [6]” came out at 4.4. Also, in the data set “physchem [8]”, the logD was above 3.5. The intrinsic clearance (CLint scaled) at 2 h, 1 µM in the data set “in vitro [9]” is 1680 mL/min/kg. The fraction unbound in the data set “in vitro [11]” amounted to 5.6e-05; in “in vitro [12]”, 3.6e-05.
In the case of `Cc1ccc(S(=O)(=O)NCCc2ccc(Oc3ccc(F)c(F)c3)cc2)cc1C(=O)O`, the blood plasma ratio in data set [14] came to 0.562; in data set [15] it was 0.55. In addition, the CLH in [16] came out at 6.1 mL/min/kg; in data set [17], 0.72 mL/min/kg. The molecule also returned a pKa at 0.3 h in “physchem [6]” of 3.4. The molecule also gave an apparent permeability (Papp) in the data set “in vitro [7]” of 7.3 ×10⁻⁶ cm/s. For the same molecule, the logD in the data set “physchem [8]” turned out to be 1.6. The molecule further yielded an intrinsic clearance (CLint scaled) at 2 h, 1 µM in the data set “in vitro [9]” of 19 mL/min/kg. In addition, the fraction unbound stood at 0.00107 in “in vitro [11]” and 0.00229 in the data set “in vitro [12]”.
Consider `COc1ccccc1Oc1c(NS(=O)(=O)c2ccc(C(C)(C)C)cc2)nc(-c2ncccn2)nc1OCCO` [BOSENTAN], for which the CLH in data set [1] was determined as 15.9 mL/min/kg; in data set [2] it was 33.1 mL/min/kg; in data set [3] it was 2.2 mL/min/kg. The blood plasma ratio in the data set “in vivo [4]” turned out to be 0.69; in the data set “in vivo [5]”, 1.19; in the data set “clinical”, 0.668. In the data set “physchem [6]”, this molecule returned a pKa at 0.3 h of 4.9. Also, in “in vitro [7]”, the Papp was determined as 7.4 ×10⁻⁶ cm/s. For the same molecule, the logD in the data set “physchem [8]” turned out to be 1.2. For the same molecule, the CLint scaled at 2 h, 1 µM in “in vitro [9]” stood at 16 mL/min/kg. Also, the fraction unbound came out at 0.0121 in “in vitro [10]”, 0.0422 in the data set “in vitro [11]” and 0.0285 in “in vitro [12]”.
Consider `COc1ccccc1[C@H](Cn1c(=O)n(C(C)(C)C(=O)O)c(=O)c2c(C)c(-c3ncco3)sc21)OC1CCOCC1` [FIRSOCOSTAT], for which the blood plasma ratio in data set [14] turned out to be 0.623; in data set [15] it was 0.655. For the same molecule, the CLH in [16] is 11.3 mL/min/kg; in data set [17], 10 mL/min/kg. This molecule also displayed a Papp in the data set “in vitro [7]” of 5.5 ×10⁻⁶ cm/s. This molecule yielded a logD in the data set “physchem [8]” of 1.1. In addition, the CLint scaled at 2 h, 1 µM in “in vitro [9]” amounted to 23 mL/min/kg. The fraction unbound in the data set “in vitro [11]” turned out to be 0.0284; in “in vitro [12]” it was 0.0172.
Take `Cc1ccc(NC(=O)C2(c3ccc4c(c3)OC(F)(F)O4)CC2)nc1-c1cccc(C(=O)O)c1` [LUMACAFTOR]: the blood plasma ratio in data set [14] and in [15] was 0.575 each time. Also, the CLH came to 0.72 mL/min/kg in data set [16] and 0.26 mL/min/kg in data set [17]. The molecule also returned a pKa at 0.3 h in the data set “physchem [6]” of 4.2. The molecule also displayed a Papp in “in vitro [7]” of 25 ×10⁻⁶ cm/s. Also, in the data set “physchem [8]”, the log distribution coefficient (logD) was 2.6. The same molecule showed a CLint scaled at 2 h, 1 µM in “in vitro [9]” of 27 mL/min/kg. Further, the figures for the fraction unbound in “in vitro [11]” and in “in vitro [12]” were 0.0045 and 0.0032, respectively.
In the case of `CCC[C@H](c1ccc(C(=O)NCCC(=O)O)cc1)[C@H](c1ccc(Cl)cc1)c1c[nH]c2c(F)cc(C)cc12` [MK-3577], the blood plasma ratio is 0.95 in [14] and 0.55 in data set [15]. Also, the results for the CLH in data set [16] and in data set [17] were 9.3 mL/min/kg and 4.9 mL/min/kg, respectively. The same molecule showed a pKa at 0.3 h in the data set “physchem [6]” of 4.1. In the data set “physchem [8]”, this molecule registered a logD above 3.5. In the data set “in vitro [9]”, this molecule yielded a CLint scaled at 2 h, 1 µM of 571 mL/min/kg. Also, the fraction unbound in the data set “in vitro [11]” was found to be 0.00023; in the data set “in vitro [12]”, 0.00025.
For the molecule `Cc1nn(-c2cnc(OCC(C)C)c(Cl)c2)c2ccc(C(=O)NS(C)(=O)=O)cc12` [PF-05241328], the CLH in data set [1] amounted to 3.1 mL/min/kg; in [2] it was 30.1 mL/min/kg; in data set [3] it was 5.7 mL/min/kg. The figures for the blood plasma ratio in “in vivo [4]”, in the data set “in vivo [5]” and in the data set “clinical” were 0.55, 0.56 and 0.56, respectively. Besides, the pKa at 0.3 h in the data set “physchem [6]” came out at 3.6. Moreover, the Papp in the data set “in vitro [7]” was 3.9 ×10⁻⁶ cm/s. The logD in the data set “physchem [8]” is 2. In the data set “in vitro [9]”, this molecule gave an intrinsic clearance (CLint scaled) at 2 h, 1 µM of 37 mL/min/kg. Besides, the fraction unbound in “in vitro [10]” was 0.001; in the data set “in vitro [11]”, 0.002; in “in vitro [12]”, 0.002.
On to `O=C(O)C[C@H](O)C[C@H](O)/C=C/c1c(C2CC2)nc2ccccc2c1-c1ccc(F)cc1` [PITAVASTATIN], for which the CLH in data set [1] worked out at 7.1 mL/min/kg; in [2], 17.8 mL/min/kg; in data set [3], 5.6 mL/min/kg. The blood plasma ratio in “in vivo [4]”, in the data set “in vivo [5]” and in “clinical” was 0.65 throughout. Also, the pKa at 0.3 h in the data set “physchem [6]” was found to be 4.7; in “physchem [13]” it was 5.1. In “in vitro [7]”, this molecule came in with a Papp of 8.5 ×10⁻⁶ cm/s. The logD in “physchem [8]” worked out at 1.2. This molecule also returned a CLint scaled at 2 h, 1 µM in the data set “in vitro [9]” of 31 mL/min/kg. Also, the fraction unbound in “in vitro [10]” was 0.008; in “in vitro [11]”, 0.0263; in the data set “in vitro [12]”, 0.008.
Regarding `CC[C@H](C)C(=O)O[C@H]1C[C@H](O)C=C2C=C[C@H](C)[C@H](CC[C@@H](O)C[C@@H](O)CC(=O)O)[C@H]21` [PRAVASTATIN], the CLH was determined as 19.3 mL/min/kg in data set [1], 34.6 mL/min/kg in data set [2] and 7.3 mL/min/kg in data set [3]. Besides, the figures for the blood plasma ratio in “in vivo [4]”, in the data set “in vivo [5]” and in “clinical” were 0.595, 0.651 and 0.55, respectively. For the same molecule, the pKa at 0.3 h in the data set “physchem [6]” turned out to be 4.3. Moreover, the Papp in the data set “in vitro [7]” came to 0.46 ×10⁻⁶ cm/s. In the data set “physchem [8]”, this molecule yielded a logD of -0.4. In “in vitro [9]”, the CLint scaled at 2 h, 1 µM stood at 0.77 mL/min/kg. For the same molecule, the fraction unbound is 0.537 in “in vitro [10]”, 0.649 in “in vitro [11]” and 0.634 in “in vitro [12]”.
Take `CC(C)c1nc(N(C)S(C)(=O)=O)nc(-c2ccc(F)cc2)c1/C=C/[C@@H](O)C[C@@H](O)CC(=O)O` [ROSUVASTATIN]: the results for the CLH in data set [1], in [2] and in data set [3] were 28.4 mL/min/kg, 27.9 mL/min/kg and 6.8 mL/min/kg, respectively. The blood plasma ratio came out at 0.588 in “in vivo [4]”, 0.735 in “in vivo [5]” and 0.569 in “clinical”. Moreover, the pKa at 0.3 h in the data set “physchem [6]” was 4.3. In the data set “in vitro [7]”, this molecule registered a Papp of 0.89 ×10⁻⁶ cm/s. In addition, the logD in the data set “physchem [8]” stood at 0.1. In addition, in “in vitro [9]”, the CLint scaled at 2 h, 1 µM amounted to 0.86 mL/min/kg. Further, the fraction unbound in “in vitro [10]” was 0.0421; in the data set “in vitro [11]”, 0.155; in “in vitro [12]” it was 0.158.
With `Cn1cc(C(=O)O)c2ccc(N3CCC(OCc4c(-c5c(Cl)cccc5Cl)noc4C4CC4)CC3)cc21` [TERN-101], the blood plasma ratio turned out to be 1.1 in data set [14] and 0.612 in [15]. For the same molecule, the results for the CLH in data set [16] and in data set [17] were 6 mL/min/kg and 8.8 mL/min/kg, respectively. Moreover, the Papp in “in vitro [7]” was determined as 17 ×10⁻⁶ cm/s. In the data set “physchem [8]”, this molecule registered a logD of 2.7. Besides, in “in vitro [9]”, the CLint scaled at 2 h, 1 µM is 111 mL/min/kg. Moreover, the fraction unbound came out at 0.0049 in “in vitro [11]” and 0.0122 in the data set “in vitro [12]”.
